The results in this text go back to patent US20210355107A1, “MULTI-SUBSTITUTED PYRIDONE DERIVATIVES AND MEDICAL USE THEREOF” (Beijing Yuezhikangtai Biomedicines Co., Ltd., priority 2018, published 2021).

SMILES strings stand for the structures.

This test addresses T1, tyrosine kinase Tyro3 (Homo sapiens, UniProt Q06418).
T1 construct: purchased Carna 08-109
T1 sequence (Q06418 453-890 limits assumed): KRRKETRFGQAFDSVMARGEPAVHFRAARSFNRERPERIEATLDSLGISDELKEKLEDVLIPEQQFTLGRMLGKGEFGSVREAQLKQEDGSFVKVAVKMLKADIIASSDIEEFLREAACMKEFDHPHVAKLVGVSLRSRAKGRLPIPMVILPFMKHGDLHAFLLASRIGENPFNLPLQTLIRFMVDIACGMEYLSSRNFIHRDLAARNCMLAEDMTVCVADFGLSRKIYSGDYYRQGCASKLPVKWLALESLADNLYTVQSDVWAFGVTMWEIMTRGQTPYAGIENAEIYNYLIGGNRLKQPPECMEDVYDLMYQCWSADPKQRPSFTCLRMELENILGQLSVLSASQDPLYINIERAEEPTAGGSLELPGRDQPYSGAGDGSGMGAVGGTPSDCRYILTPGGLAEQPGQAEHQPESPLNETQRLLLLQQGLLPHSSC
Kind of test: HTRF assay, inhibitory activity against tyrosine kinase Tyro3. In kind it is biochemical. The settings on record: ATP at Km (50 μM), two duplicate wells. The protocol:
Test Example 2: Evaluation of Inhibitory Activity (IC50) of Compounds disclosed herein against Tyrosine Kinases Mer and Tyro3
In this test, HTRF method was used to test the inhibitory activity of compounds when ATP concentrations correspond to the Km of the kinases. The control substance was RXDX-106. The concentration of test compound was 3-fold diluted from an initial concentration of 10 μM, and two duplicate wells were set.
Kinase Mer (Carna, Cat. No. 08-108, Lot. No. 14CBS-0421H); Tyro3 (Carna, Cat. No. 08-109, Lot. No. 08CBS-1186H); HTRF kinase-TK kit (Cisbio, Cat. No. 62TK0PEC), the kit comprising: biotin-TK substrate lyophilized powder (Cisbio, Cat. No. 61TK0BLC, Lot. No. 07A), streptavidin-XL665 (Cisbio, Cat. No. 610SAXLG, Lot. No. 126A), TK antibody-cryptate (Cisbio, Cat. No. 610SAXLG, Lot. No. 04A), and detection buffer (including EDTA) (Cisbio, Cat. No. 62TK0PEC, Lot. No. 12A); ATP (Sigma, Cat. No. A7699-5G, CAS No. 34369-07-8, Lot. No. SLBQ6014V); DMSO (Sigma, Cat. No. D5879-1L, Lot. No. SHBH9944); HEPES (Sigma, Cat. No. V900477-500G, CAS No. 7365-45-9, Lot. No. WXBC4716V); MgCl2 (Sigma, Cat. No. 208337-1KG, Lot. No. MKBX9508V); EGTA (Sigma, Cat. No. E3889-100g, CAS 67-42-5, […], Lot. No. SLBG8546V); NP-40 (Beijing Dingguo, Cat. No. DH218, Lot. No. 36R00160); DTT (Sigma, Cat. No. D0632-25g, CAS No. 3483-12-3, Lot. No. SLBF3964V); compound plate (Labcyte, Cat. No. LP0200, Lot. No. 0006386836); assay plate (Greiner, Cat. No. 784075, Lot. No. E16123HM); control substance RXDX-106 (prepared according to the method disclosed in patent WO2013074633).
1) Preparation of a buffer: 50 mM HEPES, 10 mM MgCl2, 1 mM EGTA, 0.01% NP-40, 2 mM DTT.
2) Preparation of control substance and test samples: RXDX-106 and the compounds disclosed herein were each dissolved in DMSO to 10 mM and then diluted to 1 mM or an appropriate concentration with DMSO, and then serial double dilution was performed using BRAVO (Agilent). 100 nL of each was transferred from a compound plate (Labcyte-LP0200) to an assay plate (Greiner-784075) using ECHO 555 (Labcyte). The final concentration of DMSO was 1%.
3) Mer and Tyro3 were each diluted to 0.5 nM and 1.2 nM with the detection buffer (Cisbio, Cat. No. 62TK0PEC, Lot. No. 12A). 5 μL of each was added to a 384-well plate and incubated with the compounds disclosed herein for 30 min at 22-25° C. Final concentrations of Mer and Tyro3 were 0.25 nM and 0.6 nM, respectively.
4) Biotin-TK substrate and ATP were each diluted to a concentration twice the final concentration with 1× kinase buffer made up of HEPES, NaN3, BSA and orthovanadate. 5 μL of the mixture of substrate and ATP was added to the 384-well plate to initiate the reaction, which lasts for 1 h at 22-25° C.
5) Streptavidin-XL665 and TK antibody-cryptate were diluted to 250 nM and 0.5 nM, respectively, with the detection buffer. […] of each of the two solutions was added to the 384-well plate to initiate the reaction, which lasts for 1 h at 22-25° C. The final concentrations of streptavidin-XL665 and TK antibody-cryptate were 125 nM and 0.25 nM, respectively.
6) The fluorescence intensities at 665 nm and 615 nm were read with an Envision Reader (PerkinElmer) .
7) IC50 values of the compounds were fitted with XL-fit software.
`[2H]C([2H])([2H])n1cc(-c2cnc(N)c(-c3cc(F)c(NC(=O)c4cn(C(C)C)c(C#N)c(-c5ccc(F)cc5)c4=O)cc3F)c2)cn1` [Example 34, N-(4-(2-amino-5-(1-methyl-d3-1H-pyrazol-4-yl)pyridin-3-yl)-2,5-difluorophenyl)-6-cyano-5-(4-fluorophenyl)-1-isopropyl-4-oxo-1,4-dihydropyridine-3-carboxamide] came in with an IC50 of 1.16 nM.

Regarding `CC(C)n1cc(C(=O)Nc2cc(F)c(-c3cc(-c4cnn(C)c4)cnc3N)cc2F)c(=O)c(-c2ccc(F)cc2)c1C#N` [Example 6, N-(4-(2-amino-5-(1-methyl-1H-pyrazol-4-yl)pyridin-3-yl)-2,5-difluorophenyl)-6-cyano-5-(4-fluorophenyl)-1-isopropyl-4-oxo-1,4-dihydropyridine-3-carboxamide], inhibition was half-maximal at 1.8 nM (IC50). The value for `COc1cc2nccc(Oc3ccc(NC(=O)c4cn(C(C)C)c(C#N)c(-c5ccc(F)cc5)c4=O)cc3F)c2cc1OC` [Example 24, 6-cyano-N-(4-((6,7-dimethoxyquinolin-4-yl)oxy)-3-fluoro-phenyl)-5-(4-fluorophenyl)-1-isopropyl-4-oxo-1,4-dihydropyridine-3-carboxamide] was 15.5 nM; that for `CCn1cc(-c2cnc(N)c(-c3ccc(NC(=O)c4cn(C5CC5)c(C#N)c(-c5ccc(F)cc5)c4=O)cc3F)c2)cn1` [Example 10, N-(4-(2-amino-5-(1-ethyl-1H-pyrazol-4-yl)pyridin-3-yl)-3-fluorophenyl)-6-cyano-5-(4-fluorophenyl)-1-cyclopropyl-4-oxo-1,4-dihydropyridine-3-carboxamide] was 30.2 nM.

`CC(C)n1cc(C(=O)Nc2ccc(-c3cc(-c4cnn(C5CCNCC5)c4)cnc3N)c(F)c2)c(=O)c(-c2ccc(F)cc2)c1C#N` [Example 2, N-(4-(2-amino-5-(1-(piperidin-4-yl)-1H-pyrazol-4-yl)pyridin-3-yl)-3-fluorophenyl)-6-cyano-5-(4-fluorophenyl)-1-isopropyl-4-oxo-1,4-dihydropyridine-3-carboxamide]: the IC50 was determined as 1.18 nM.

On to `CCn1cc(-c2cnc(N)c(-c3ccc(NC(=O)c4cn(C(C)C)c(C#N)c(-c5ccc(F)cc5)c4=O)cc3F)c2)cn1` [Example 3, N-(4-(2-amino-5-(1-ethyl-1H-pyrazol-4-yl)pyridin-3-yl)-3-fluoro-phenyl)-6-cyano-5-(4-fluorophenyl)-1-isopropyl-4-oxo-1,4-dihydropyridine-3-carboxamide], for which it took 2.27 nM to reach half-maximal inhibition (IC50). Compound `CC(C)n1cc(C(=O)Nc2ccc(-c3cc(-c4cnn(C)c4)cnc3N)c(F)c2)c(=O)c(-c2ccc(F)cc2)c1C#N` [Example 4, N-(4-(2-amino-5-(1-methyl-1H-pyrazol-4-yl)pyridin-3-yl)-3-fluorophenyl)-6-cyano-5-(4-fluorophenyl)-1-isopropyl-4-oxo-1,4-dihydropyridine-3-carboxamide] yielded an IC50 of 2.67 nM. The value for `CCn1cc(-c2cnc(N)c(-c3cc(F)c(NC(=O)c4cn(C(C)C)c(C#N)c(-c5ccc(F)cc5)c4=O)cc3F)c2)cn1` [Example 33, N-(4-(2-amino-5-(1-ethyl-1H-pyrazol-4-yl)pyridin-3-yl)-2,5-difluorophenyl)-6-cyano-5-(4-fluorophenyl)-1-isopropyl-4-oxo-1,4-dihydropyridine-3-carboxamide] was 0.5 nM. The value for `CC(C)n1cc(C(=O)Nc2ccc(-c3cc(-c4cnn(C5CCN(C)CC5)c4)cnc3N)c(F)c2)c(=O)c(-c2ccc(F)cc2)c1C#N` [Example 7, N-(4-(2-amino-5-(1-(1-methylpiperidin-4-yl)-1H-pyrazol-4-yl)-pyridin-3-yl)-3-fluorophenyl)-6-cyano-5-(4-fluorophenyl)-1-isopropyl-4-oxo-1,4-dihydro-pyridine-3-carboxamide] was 1.77 nM.
